Assay results from patent US9890185B2, “Urea derivatives useful as kinase inhibitors” (Respivert Limited, priority 2013, dated 2018).
Converted amounts (≈) assume the structure as drawn. Like-named read-outs stand apart in the source and are kept apart here.

Experiments:
PBMCs [1] = experiment: LPS-induced IL-8 release in PBMC cells (assay b); format: cell-based, human; conditions: Homo sapiens, PBMC; LPS-stimulated PBMCs; read-out: IC50 Values for Inhibition of Cytokine Release, PBMCs IL-8
In short: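 Cytokines (TNFα, IL-8) in supernatants were quantified by sandwich ELISA after a 24 h challenge with 1 ng/mL E. coli LPS at 37° C, 5% CO2. Healthy-donor PBMCs had been exposed to compound for 2 h beforehand. IC50 values were fitted from the concentration-response curves.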

c-Src = c-Src (Homo sapiens (Human), UniProt P12931); experiment: c-Src enzyme inhibition (FRET, Z-LYTE); format: biochemical
In short: (§1)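 First, compound and enzyme incubate 2 hr at room temperature. Next, FRET peptide (8 μM added solution) and ATP go in for 1 hr, using an 800 μM solution for c-Src and 60 μM for Syk. Finally protease develops for 1 hr; IC50 is fitted to inhibition versus concentration.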

[2] = target: p38 MAPKα isoform (MAPK14) (Homo sapiens (Human), UniProt Q16539); experiment: p38 MAPKα enzyme inhibition (FRET, Z-LYTE, Method 2); format: biochemical
In short: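 Z-LYTE FRET: p38 MAPKα (80 ng/mL for Method 1, 200 ng/mL for Method 2, pre-dilution) preincubated 2 hr RT with compound (4–0.004 μg/mL solutions), activity read via MAPKAP-K2 phosphorylation after 1 hr RT and 1 hr protease development. Coumarin/fluorescein ratio gives phosphorylation; % inhibition versus uninhibited control, IC50 from concentration-response curve.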

GSK 3α = GSK 3α (Homo sapiens (Human), UniProt P49840); experiment: GSK 3α enzyme inhibition (FRET, Z-LYTE, Method 2); format: biochemical; conditions: read-out: IC50 Values for Enzyme Inhibition, GSK3α
In short: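 Phosphorylation of a dual-labelled synthetic peptide by human GSK3α is read as a coumarin/fluorescein ratio after protease development. Compound stocks run 4 to 0.004 μg/mL, and ATP stock is 40 μM.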

PBMCs [3] = experiment: IFN gamma release in CD3/CD28 stimulated PBMC cells (assay c); format: cell-based; conditions: Homo sapiens, read-out: IC50 Values for Inhibition of Cytokine Release, PBMCs IFNγ
In short: (§2)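 Sandwich ELISA of supernatant IL-2 and IFN gamma; IC50 from dose-response curve. Cells: density-gradient PBMCs from healthy subjects on plate-bound anti-CD3 0.3 μg/mL + anti-CD28 3 μg/mL, compound added, 3 d culture.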

PBMCs [4] = experiment: IL-2 release in CD3/CD28 stimulated PBMC cells (assay c); format: cell-based; conditions: Homo sapiens, read-out: IC50 Values for Inhibition of Cytokine Release, PBMCs IL-2
In short: as §2

HT29 cells = experiment: IL-1β-induced IL-8 release in HT29 cells (assay d); format: cell-based; conditions: Homo sapiens, HT-29; IL-1β-stimulated HT29 cells; read-out: IC50 Values for Inhibition of Cytokine Release, HT29 cells IL-8
Method: HT29 cells, a human colon adenocarcinoma cell line, are plated in a 96 well plate (24 hrs) and pre-treated with compounds at the desired concentration for 2 hours before addition of 5 ng/mL of IL-1β (Abcam) for 24 hours. Supernatants are harvested for IL-8 quantification by Sandwich ELISA (Duo-set, R&D System). The IC50 is determined from the dose response curve.

Syk = Syk (Homo sapiens (Human), UniProt P43405); experiment: Syk enzyme inhibition (FRET, Z-LYTE); format: biochemical
In short: as §1

PBMCs [5] = experiment: Cell mitosis assay in PBMCs (assay g); format: cell-based; conditions: Homo sapiens, PBMC, test compound 5 μg/mL
In short: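 Metaphase arrest with 0.1 μg/mL demecolcine during the final 2 hr of a 20 hr compound exposure, which follows 48 hr of 2% PHA stimulation of healthy-donor human PBMCs. Mitotic lymphocytes counted by flow cytometry (anti-phospho-histone 3 plus propidium iodide). Inhibition expressed relative to 0.5% DMSO.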

[6] = tested on: endotoxin (LPS)-induced uveitis; experiment: Endotoxin-induced uveitis in rats (in vivo assay vi); parameters: species or system Lewis rats; conditions: eyes of LPS-stimulated rats, topical, 1 mg/mL
Method: Male, Lewis rats (6-8 weeks old, Charles River UK Limited) are housed in cages of 3 at 19-21° C. with a 12 h light/dark cycle (07:00/19:00) and fed a standard diet of rodent chow and water ad libitum. […] Untreated rats are injected with PBS. […] Before administration, the solution or suspension to be administered is agitated for 5 minutes to ensure a uniform suspension. 6 hours after LPS dosing, animals are euthanized by overdose with pentobarbitone (i.v.). Following euthanasia, the right eye of each animal is enucleated and dissected into front (anterior) and back (posterior) sections around the lens. Each section is weighed and homogenised in 500 μL of sterile phosphate buffered saline followed by 20 minutes centrifugation at 12000 rpm at 4° C. The resulting supernatant is divided into 3 aliquots and stored at −80° C. until subsequent cytokine analysis by R&D DuoSet ELISA.

d-U937 cells = experiment: Accumulation of β catenin in d-U937 cells (assay m); format: cell-based, human; conditions: percentage relative to Reference Compound at 1 μg/mL
In short: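 Read-out: colourimetric cell-based immunoassay for endogenous β-catenin (OD450 minus 655 reference), normalised to crystal violet absorbance at 595 nm. Test compound or vehicle was applied for 18 hr to U937 monocytes first differentiated with PMA (100 ng/mL) for 48–72 hr.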

[7] = Solubility in fasted-state simulated colonic fluid (FaSSCoF); format: physicochemical; conditions: thermodynamic from solid, pH 6.5, 25° C.; for solubility thermodynamic at 24 h: 25 °C, pH 6.5, fassgf or other biorelevant
Method: The solubilities of compounds of the invention in FaSSCoF at pH 6.5 are determined using a modification of a previously-reported procedure (Vertzoni, M., et al. Pharm. Res. 2010, 27, 2187-2196). In place of the bile salt extract employed in the original procedure (which extract is no longer available), the modified procedure uses a mixture of sodium taurochlorate (0.15 g), glycocholic acid (0.15 g), ursodeoxycholic acid (0.05 g), cholic acid (0.05 g), and glycodeoxycholic acid (0.05 g). These five bile acids are ground together with a mortar and pestle to produce a fine white powder that is incorporated into the FaSSCoF, as outlined below.
Tris(hydroxymethyl)aminomethane (Tris; 0.275 g) and maleic acid (0.44 g) are dissolved in water (35 mL) to give a solution whose pH is adjusted to 6.5 by treatment with 0.5M NaOH (ca. 12 mL). The solution is then made up to 50 mL with water. A portion of this Tris/maleate buffer solution (ca. 25 mL) is added to a 0.5 L round-bottomed flask, before being treated with 0.00565 g of the bile acid mixture described above. Solutions of phosphatidylcholine (0.0111 g) in DCM (0.15 mL) and palmitic acid (0.0013 g) in DCM (0.15 mL) are added, then the organic solvent is evaporated off under reduced pressure at 40° C. until a clear solution, with no perceptible DCM odour, is achieved. The volume of the evaporated solution is adjusted to 50 mL by addition of the remainder of Tris/maleate buffer, then BSA (0.115 g) is added, before being dissolved by gentle agitation.
Test compounds are suspended in the pH 6.5 FaSSCoF medium to give a maximum final concentration of ca. 6 mg/mL. The suspensions are equilibrated at 25° C. for 24 h, before being filtered through a glass fibre C filter. The filtrates are then diluted as appropriate for injection and quantification by HPLC with reference to a standard. Different volumes of the standard, diluted and undiluted sample solutions are injected and the solubilities are calculated using the peak areas determined by integration of the peak found at the same retention time as the principal peak in the standard injection.

Sequence of p38 MAPKα isoform (MAPK14) (Q16539 whole entry, canonical isoform): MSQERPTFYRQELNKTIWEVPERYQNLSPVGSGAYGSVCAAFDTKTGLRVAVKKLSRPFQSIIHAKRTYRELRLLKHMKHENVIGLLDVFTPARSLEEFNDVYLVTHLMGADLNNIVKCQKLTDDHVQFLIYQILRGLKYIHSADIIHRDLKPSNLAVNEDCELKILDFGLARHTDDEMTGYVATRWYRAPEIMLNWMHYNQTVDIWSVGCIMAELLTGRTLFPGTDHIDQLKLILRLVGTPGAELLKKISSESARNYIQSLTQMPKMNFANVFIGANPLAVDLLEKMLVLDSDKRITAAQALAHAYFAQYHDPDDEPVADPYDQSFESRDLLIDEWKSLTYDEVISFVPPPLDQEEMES
Sequence of GSK 3α (P49840 whole entry): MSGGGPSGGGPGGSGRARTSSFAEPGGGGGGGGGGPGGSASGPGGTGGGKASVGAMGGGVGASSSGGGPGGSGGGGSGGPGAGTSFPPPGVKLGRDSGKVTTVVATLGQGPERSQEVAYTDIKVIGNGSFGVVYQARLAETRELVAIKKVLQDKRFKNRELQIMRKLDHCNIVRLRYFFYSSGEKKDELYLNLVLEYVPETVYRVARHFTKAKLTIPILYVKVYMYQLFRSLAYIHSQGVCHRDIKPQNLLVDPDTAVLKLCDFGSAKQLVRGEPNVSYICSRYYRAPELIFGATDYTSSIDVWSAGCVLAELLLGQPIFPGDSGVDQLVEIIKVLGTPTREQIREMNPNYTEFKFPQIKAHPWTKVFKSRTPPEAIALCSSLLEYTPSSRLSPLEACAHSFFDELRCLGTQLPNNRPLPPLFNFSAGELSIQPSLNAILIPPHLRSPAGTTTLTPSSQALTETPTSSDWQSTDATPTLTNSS
Sequence of c-Src (P12931 whole entry, looked up): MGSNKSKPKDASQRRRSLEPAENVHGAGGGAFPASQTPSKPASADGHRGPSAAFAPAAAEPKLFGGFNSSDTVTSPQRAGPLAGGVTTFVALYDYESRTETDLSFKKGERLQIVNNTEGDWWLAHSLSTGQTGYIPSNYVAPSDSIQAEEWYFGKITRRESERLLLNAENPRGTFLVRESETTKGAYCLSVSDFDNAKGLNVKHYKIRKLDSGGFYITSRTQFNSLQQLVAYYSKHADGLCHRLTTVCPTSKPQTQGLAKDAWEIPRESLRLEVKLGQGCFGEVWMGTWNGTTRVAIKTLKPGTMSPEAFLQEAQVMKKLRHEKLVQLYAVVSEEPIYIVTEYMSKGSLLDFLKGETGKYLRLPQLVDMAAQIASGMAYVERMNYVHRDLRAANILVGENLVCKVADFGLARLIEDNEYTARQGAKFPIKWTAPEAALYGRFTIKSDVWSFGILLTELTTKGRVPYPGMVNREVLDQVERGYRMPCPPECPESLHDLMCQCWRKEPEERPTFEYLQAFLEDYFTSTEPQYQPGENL

IC50 (c-Src) [nM]	IC50 [2] [nM]	IC50 (GSK 3α) [nM]	IC50 (HT29 cells) [nM]	IC50 (Syk) [nM]	solubility thermodynamic at 24 h ([7]; Run 1, read-out: pH 6.5 FaSSCoF Solubility Run 1) [µg/mL]	solubility thermodynamic at 24 h ([7]; Run 2, read-out: pH 6.5 FaSSCoF Solubility Run 2) [µg/mL]	solubility at 24 h ([7]; fassgf or other biorelevant, read-out: Solubility in the FaSSCoF medium) [µg/mL]	Compound	IC50 (PBMCs [1]) [nM]	IC50 (PBMCs [3]) [nM]	IC50 (PBMCs [4]) [nM]	inhibition at 5 µg/mL (PBMCs [5]) [%]	Cell counts [6]	% β-catenin induction (d-U937 cells; test compound 1 μg/mL) [%]	% β-catenin induction (d-U937 cells; test compound 5 μg/mL) [%]	% β-catenin induction (d-U937 cells; test compound 10 μg/mL) [%]
94	151	2210	25.9	> 1460	–	–	–	COc1c(CC(N)=O)cc(C(C)(C)C)cc1NC(=O)Nc1ccc(Oc2ccnc(Nc3cccc(OS(C)(=O)=O)c3)c2)c2ccccc12 [38(r), 3-((4-((4-(3-(3-(2-Amino-2-oxoethyl)-5-(tert-butyl)-2-methoxyphenyl)ureido)naphthalen-1-yl)oxy)pyridin-2-yl)amino)phenyl methanesulfonate]	1.9	9.8	153	56.1	–	–	–	–
13	15	1070	2.6	–	–	–	–	COc1cc(Nc2cc(Oc3ccc(NC(=O)Nc4cc(C(C)(C)C)cc(C[S+](C)[O-])c4OC)c4ccccc34)ccn2)cc(C(=O)NCCN2CCOCC2)c1 (centres unmarked) [38(u), 3-((4-((4-(3-(5-(tert-Butyl)-2-methoxy-3-((methylsulfinyl)methyl)phenyl)ureido)naphthalen-1-yl)oxy)pyridin-2-yl)amino)-5-methoxy-N-(2-morpholinoethyl)benzamide]	1	2.9	171	72.2	–	–	–	–
–	–	–	–	–	–	–	–	C[C@@H]1C[C@H]2[C@@H]3CCC4=CC(=O)C=C[C@]4(C)[C@@]3(F)[C@@H](O)C[C@]2(C)[C@@]1(O)C(=O)CO [Dexamethasone, dexamethasone, reference compound]	–	–	–	–	30.1 ± 6.4	–	–	–
> 1640	8	3410	2	> 1640	–	–	–	COc1c(NC(=O)Nc2ccc(Oc3ccnc(NCc4ccccn4)c3)c3ccccc23)cc(C(C)(C)C)cc1[S+](C)[O-] (centres unmarked) [Example 42, 1-(5-(tert-Butyl)-2-methoxy-3-(methylsulfinyl)phenyl)-3-(4-((2-((pyridin-2-ylmethyl)amino)pyridin-4-yl)oxy)naphthalen-1-yl)urea]	4.3	–	–	29.9	–	−5.0	12.0	20.5
12	21	1600	8	> 706	–	–	–	COc1cc(Nc2cc(Oc3ccc(NC(=O)Nc4cc(C(C)(C)C)cc(CC(N)=O)c4OC)c4ccccc34)ccn2)cc(C(=O)NCCN2CCOCC2)c1 [Example 45, 3-((4-((4-(3-(3-(2-Amino-2-oxoethyl)-5-(tert-butyl)-2-methoxyphenyl)ureido)naphthalen-1-yl)oxy)pyridin-2-yl)amino)-5-methoxy-N-(2-morpholinoethyl)benzamide]	1.2	5.2	36.4	49.6	–	–	–	–
25	25	2060	2.8	996	–	–	–	COc1cc(Nc2cc(Oc3ccc(NC(=O)Nc4cc(C(C)(C)C)cc([S+](C)[O-])c4OC)c4ccccc34)ccn2)cc(C(=O)NCCN2CCOCC2)c1 (centres unmarked) [Example 46, 3-((4-((4-(3-(5-(tert-Butyl)-2-methoxy-3-(methylsulfinyl)phenyl)ureido)naphthalen-1-yl)oxy)pyridin-2-yl)amino)-5-methoxy-N-(2-morpholinoethyl)benzamide]	0.8	2.8	47.3	45.8	–	–	–	–
34	36	1460	26.1	> 1510	–	–	–	COc1cc(Nc2cc(Oc3ccc(NC(=O)Nc4cc(C(C)(C)C)cc(CC(N)=O)c4OC)c4ccccc34)ccn2)cc(C(N)=O)c1 [Example 47, 3-((4-((4-(3-(3-(2-Amino-2-oxoethyl)-5-(tert-butyl)-2-methoxyphenyl)ureido)naphthalen-1-yl)oxy)pyridin-2-yl)amino)-5-methoxybenzamide]	2.2	3	57.1	30.1	–	–	–	–
–	–	–	–	–	15 (≈ 18.9 µM)	16 (≈ 20.2 µM)	> 10	COc1cc(Nc2cc(Oc3ccc(NC(=O)Nc4cc(C(C)(C)C)cc([S+](C)[O-])c4OC)c4ccccc34)ccn2)cc(C(=O)NCCN2CCN(C)CC2)c1 (centres unmarked) [Example 84, 3-((4-((4-(3-(5-(tert-Butyl)-2-methoxy-3-(methylsulfinyl)phenyl)ureido)naphthalen-1-yl)oxy)pyridin-2-yl)amino)-5-methoxy-N-(2-(4-methylpiperazin-1-yl)ethyl)benzamide]	1.8	–	–	–	–	–	–	–
